Assay results taken from ChEMBL document CHEMBL1141875, “Antitumor-active cobalt-alkyne complexes derived from acetylsalicylic acid: studies on the mode of drug action” (J Med Chem, 2005).

Columns and labels:
[1] = Antiproliferative activity in MDA-MB 231 human breast cancer cells; type: functional, cell-based, Cancer cell lines
[2] = Antiproliferative activity in MCF-7 human breast cancer cells; type: functional, cell-based, MCF7
[3] = Lipophilicity was reported; type: physicochemical; settings: human, octanol/water
Cancer cell lines [4] = assay: Content in MDA-MB 231 human breast cancer cell nuclei was reported; type: functional, cell-based
[5] = tested on: Glutathione reductase (Homo sapiens); assay: Percentage influence on cellular glutathione reductase activity
Cancer cell lines [6] = assay: Percentage of content in MCF-7 human breast cancer cell nuclei was reported; type: functional, cell-based
Nucleic Acid = assay: DNA-binding efficacy; type: nucleic-acid assay
Cancer cell lines [7] = assay: Percentage of content in MDA-MB 231 human breast cancer cell nuclei was reported; type: functional, cell-based
Cancer cell lines [8] = assay: Content in MCF-7 human breast cancer cell nuclei was reported; type: functional, cell-based
[9] = Homo sapiens, Cancer cell lines

## N[C@@H](Cc1ccc(N(CCCl)CCCl)cc1)C(=O)O
[1]; [9]
  IC50: 3.9 µM
[2]; Homo sapiens, MCF7
  IC50: 5.7 µM

## O=c1[nH]cc(F)c(=O)[nH]1 [FLUOROURACIL]
[1]; [9]
  IC50: 9.6 µM
[2]; Homo sapiens, MCF7
  IC50: 4.8 µM

## CISPLATIN
[1]; cancer cell lines
  IC50: 4 µM
[2]; mcf7
  IC50: 2 µM

## Co-ASS [listing 1 of 2 here]
[1]; cancer cell lines
  IC50: 1.9 µM
[2]; mcf7
  IC50: 1.4 µM
[3]
  Log Kw: 4.91

## Co-ASS [listing 2 of 2 here]
Cancer cell lines [4]
  Activity: 0.22 pmol/µg
[5]
  Activity: 93%
Cancer cell lines [6]
  Activity: 0.8%
Nucleic Acid
  Activity: 9.82 pmol/µg
Cancer cell lines [7]
  Activity: 5%
Cancer cell lines [8]
  Activity: 0.12 pmol/µg
